Test results reported in PubChem BioAssay (NCI).
Where “and” joins values, the source holds several entries; their conditions need not be identical. Equal entries are not always repeated.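 Method: 48-hour compound exposure of cells in 96-well plates, five concentrations, linear interpolation of endpoints. At the GI50, growth is halved. TGI: concentration producing complete growth inhibition.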

Key:
Assay in all cases: NCI-60 cell line screen, 48 h
IGROV1 ovarian = tested on: IGROV1 ovarian
OVCAR-8 ovarian = tested on: OVCAR-8 ovarian
DU-145 prostate = tested on: DU-145 prostate
HCT-15 colon = tested on: HCT-15 colon
SK-OV-3 ovarian = tested on: SK-OV-3 ovarian
A549 NSCLC = tested on: A549 NSCLC
PC-3 prostate = tested on: PC-3 prostate
KM12 colon = tested on: KM12 colon
NCI-H522 lung = tested on: NCI-H522 lung
MDA-MB-435 = tested on: MDA-MB-435

Row | SMILES | GI50 (IGROV1 ovarian) [µM] | TGI (IGROV1 ovarian) | GI50 (OVCAR-8 ovarian) [µM] | TGI (OVCAR-8 ovarian) | GI50 (DU-145 prostate) [µM] | TGI (DU-145 prostate) [µM] | GI50 (HCT-15 colon) [µM] | TGI (HCT-15 colon) | GI50 (SK-OV-3 ovarian) [µM] | TGI (SK-OV-3 ovarian) | GI50 (A549 NSCLC) | TGI (A549 NSCLC) | GI50 (PC-3 prostate) [µM] | TGI (PC-3 prostate) [µM] | GI50 (KM12 colon) [µM] | TGI (KM12 colon) | GI50 (NCI-H522 lung) [µM] | TGI (NCI-H522 lung) | GI50 (MDA-MB-435) [µM] | TGI (MDA-MB-435) [µM]
1 | CN1CCN(c2ccc3nc(-c4ccc(OCCCCN5CCN(CCCCN6C(=O)c7cccc8cccc(c78)C6=O)CC5)cc4)[nH]c3c2)CC1 | 48.4 | > 100 µM | 48.6 | > 100 µM | 29.4 | > 100 | 35.3 | > 100 µM | > 100 | > 100 µM | > 100 µM | > 100 µM | 69.3 | > 100 | 43.8 | > 100 µM | 52.9 | > 100 µM | 41 | > 100
2 | CN=C(N)N/N=C(\C)c1ccc2c(c1)Cc1ccccc1-2 | 3.74 | 19.5 µM |  |  | 1.12 | 3.17 | 1.83 | 3.86 µM | 1.61 | 5.1 µM |  |  | 2.39 | 10.3 | 1.72 | 3.47 µM |  |  | 1.64 | 3.15
3 | Cc1cc(Br)cc(C)c1NC(=O)C(=O)Nn1c(=S)[nH]c2ccccc2c1=O |  | > 100 µM |  | > 100 µM |  |  |  | > 100 µM |  | > 100 µM |  | > 100 µM |  | > 100 |  | > 100 µM |  | > 100 µM |  | > 100
4 | COc1cc(/C=N/NC(=O)c2ccccc2Nc2cccc(C(F)(F)F)c2)cc(OC)c1OC | 4.19 | 14.2 µM | 4.81 | 11.6 µM | 2.61 | 8.39 | 2.85 | 13.2 µM | 2.92 | 8.44 µM | 3.6 µM | 10.8 µM | 3.34 | > 28.1 | 1.29 | 4.17 µM | 6.1 | 24.6 µM | 0.476 | 1.67
5 | CC(N1CCOCC1)C(O)(c1ccccc1)c1ccccn1 (stereo not given) |  | > 100 µM |  | > 100 µM |  | > 100 |  | > 100 µM |  | > 100 µM |  | > 100 µM |  | > 100 |  | > 100 µM |  | > 100 µM |  | > 100
6 | O=C(CCCCCCCCC(=O)N/N=C\c1cc(Cl)ccc1O)N/N=C\c1cc(Cl)ccc1O | 0.83 | > 100 µM | 0.231 | 28.9 µM | 0.495 | > 100 | 0.251 | > 100 µM | 0.685 | 79.9 µM | 0.98 µM | > 100 µM | 0.864 | > 100 | 0.594 | > 100 µM | 0.31 | > 100 µM | 0.625 | > 100
7 | Nc1ccn(C2OC(C(OC3OC(CO)C(O)C(N)C3O)C(O)C(O)C(O)C(O)CO)C(N)C(O)C2O)c(=O)n1 (stereo not given) |  | > 100 µM |  | > 100 µM |  | > 100 |  | > 100 µM |  |  |  | > 100 µM |  | > 100 |  | > 100 µM |  | 93.5 µM |  | > 100
8 | COc1ccc2c(c1)/C(=N/OC(C)=O)c1c-2cnc2ccccc12 | 25.3 | 52 µM | 38.4 | > 100 µM | 36 | > 100 | 34.9 | > 100 µM | 40.4 | > 100 µM | 27.4 µM | 73.8 µM | 21.3 | 48 | 25 | 78.7 µM | 22.3 | 65.5 µM |  | 
9 | Oc1ccc(Cl)cc1/C=N\NC(=S)N/N=C/c1cc(Cl)ccc1O | 2.52 | > 100 µM | 1.92 | 17.7 µM | 3.67 | 70 | 0.997 | > 100 µM |  |  | 3.75 µM | > 100 µM | 3.13 | > 100 | 2.68 | 44.7 µM | 1.45 | 5.15 µM | 3.74 | > 100
10 | N#CC(C(=O)CCCC(=O)Nc1ccc(Cl)cc1Cl)c1ccc(Cl)cc1 (stereo not given) |  | > 100 µM |  | > 100 µM |  |  |  | > 100 µM |  | > 100 µM |  | > 100 µM |  |  |  | > 100 µM |  | > 100 µM |  | 
11 | O=c1[nH]cc(C(F)(C(F)(F)F)C(F)(F)F)c(=O)[nH]1 |  | > 100 µM |  | > 100 µM |  |  |  | > 100 µM |  | > 100 µM |  | > 100 µM |  |  |  | > 100 µM |  | > 100 µM |  | 
12 | Nc1c(C(=O)Nc2cccc3ccccc23)sc2nc3c(cc12)C(=O)CCC3 | 0.52 | > 46.7 µM | 0.506 | 32.1 µM | 0.337 | 8.71 | 0.262 | > 100 µM | 0.173 | 7.65 µM | 0.172 µM | > 46.1 µM | 0.295 | > 48.5 | 0.217 | > 100 µM | 0.057 | 1.02 µM |  | 
13 | Cc1c2ccncc2c(C)c2c1[nH]c1ccc(Cl)cc12 | 3.88 | 13.7 µM and 21.1 µM |  | 4.35 µM and 2.62 µM |  |  | 1.41 | 5.17 µM and 3.23 µM | 12.2 | 17.9 µM and 31.1 µM | 3.27 µM and 3.56 µM | 11.2 µM and 15.2 µM |  |  | 4.25 | 5.7 µM and 18.9 µM |  | 9.18 µM and 17.1 µM |  | 
14 | S=c1c2ccccc2c(=S)n2n1CC=CC2 |  | > 100 µM |  | > 100 µM |  |  |  | > 100 µM |  | > 100 µM |  | > 100 µM |  |  |  | > 100 µM |  | > 100 µM |  | 
15 | CC(C)N1C(C)[C@@H](c2ccccc2)O[P@]1(=O)CC1=CCCCC1 (stereo not given in full) |  | > 100 µM |  | > 100 µM |  |  |  | > 100 µM |  | > 100 µM |  | > 100 µM |  |  |  | > 100 µM |  | > 100 µM |  | 
16 | CC(C)(C)Sc1nnc(SC(C)(C)C)c2c(=O)[nH]nc(SC(C)(C)C)c12 |  | 22 µM |  | 22.1 µM |  |  |  | 16.4 µM |  | 32.5 µM |  | 17.9 µM |  |  |  | 25.6 µM |  | 14.2 µM |  | 
17 | C/C(=N\NS(=O)(=O)c1ccc([N+](=O)[O-])cc1)c1ccc[n+]([O-])n1 |  | 20.9 µM |  | 6.61 µM |  |  |  | 24.9 µM |  | 7.24 µM |  | > 100 µM |  |  |  | 33.8 µM |  | 4.51 µM |  | 
